Assay results as given in patent publication US20220023269A1, “Methods Of Treating Diabetes In Severe Insulin-Resistant Diabetic Subjects” (Balticgruppen Bio AB, priority 2018, published 2022).

What was measured:
[1] = test system: AMPK in primary mouse WT and hIAPPtg islets; test: AMPK activation in primary mouse WT and hIAPPtg islets; type: cell-based; conditions: 2.5, 5, 10 μM, 2 hours
Description: All cell lines were lysed in 0.1 M Tris-HCl, pH 6.8, 2% SDS, 10 mM sodium fluoride (SIGMA #S7920), 10 mM β-glycerophosphate (SIGMA #G6376), and 1 mM sodium vanadate (SIGMA #72060) and supernatant collected after 1 minute at 14,000 rpm. Islets (human and mouse) were lysed in 0.1 M Tris-HCl, pH 6.8, 2% SDS, protease inhibitor (Roche #04 693 124 001) and phosphatase inhibitor (Roche #04 906 837 001). Right calf muscle, heart, iWAT, and interscapular BAT was crushed in a pestle using liquid nitrogen and homogenised in ice cold RIPA buffer (150 mM sodium chloride (SIGMA #S7653), 1.0% NP40 (USB), 0.5% sodium deoxycholate (SIGMA #D6750), 0.1% SDS, 50 mM Tris pH 8.0, 20 mM sodium pyrophosphate (SIGMA #71515), 10 mM sodium fluoride, 10 mM β-glycerolphosphate, 1 mM sodium vanadate and protease inhibitor cocktail (Roche #04693124001), 1 tablet/10 ml lysis buffer). The supernatant was collected after 2 min at 14,000 rpm. This procedure was repeated until all fat was eliminated and the supernatant was clear, at 4° C. Samples were analysed on 4-15% polyacrylamide gels. Values were normalised toward AMPKα, β-Actin, GAPDH or the respective non-phosphorylated counterpart.
Table 3 contains origin of cell lines, growth conditions and settings for activation of AMPK via the test material. […]

CBA mice on HFD [2] = test: In vivo lipogenesis; conditions: 2 mg/g in HFD, 5 weeks
Description: After 90 minutes 0.2-0.3 g liver were isolated and homogenised in 3 ml PBS before addition of 6 ml chloroform/methanol (2:1). Samples were mixed until phase separation no longer occurred and left at RT 30 minutes before centrifuged, 4,500 rpm, 5 minutes. The water phase was removed and 3 ml chloroform transferred to a scintillation vial and evaporated to dryness by a stream of nitrogen while standing in a 40° C. water bath. The residue was dissolved in 3 ml optiphase hisafe 3 (Perkin Elmer #1200.437) and ^3H determined for 1 minute in a Wallac 1414 counter. ^3H values were normalised to liver weight.

INS-1E cells = test: Autophagic flux assay; type: cell-based; conditions: 5 μM, 24 h, ± 100 nM Bafilomycin A1
Description: INS-1E cells were incubated for 24 h with or without 5 μM test material in the presence or absence of 100 nM Bafilomycin A1 (InvivoGen #tlrl-baf1) during the last 60 min of incubation. Levels of LC3II were determined by Western blot analysis and quantified.

CBA mice on HFD [3] = test: In vivo glucose uptake ([18F]-FDG PET); conditions: 2 mg/g in HFD, 2 w, vs HFD
Description: Mice were allowed to be awake and freely moving around in their cage after injection. After 180 minutes, mice were sacrificed under deep isoflurane anaesthesia and blood was removed by retrograde perfusion of PBS via the aorta. When the liver was pale, tissues were collected and scanned for a 10 minutes static uptake (nanoScan PET/CT, Mediso, Hungary). The tissues were then scanned ex vivo scanning to assess uptake in the isolated tissues. Images were reconstructed to a 0.4×0.4 mm resolution with a 3D iterative reconstruction with 4 iterations and 4 subsets (Mediso Tera-Tomo 3D), covering 98 mm axial distance, employing spike filter, delayed-window random correction, scatter and CT-based attenuation corrections. Volumes of interest were manually delineated over each tissue using imlook4d (www.dicom-port.com). Tracer uptake was quantified as standardised uptake values (SUV), using the formula: SUV=C/(l/m); with C being the measured tissue activity concentration (Bq/mL), l the injected dose (Bq), and m the body weight (g). C and l are decay corrected to the same time.

hIAPPtg mice = test: Diet switch in hIAPPtg mice: HFD 9 w then test material-HFD (0.8 mg/g) 7 w; type: in vivo
Description: Food intake was measured weekly by giving each cage 200 g pellet. After one week, the amount of pellets consumed were calculated and adjusted according to the number of animals/cage. Body weight was measured weekly. Body composition was assessed using EchoMRI.
The potent effect of the test material on established diabetes and obesity in hIAPPtg mice on HFD formulated with 2 mg/g test material leaves open the possibility that the beneficial metabolic effects (FIG. 4, F-H) observed in these mice are secondary to the effects on weight and body fat. To address this issue, we therefore performed diet switch experiments on hIAPPtg mice using a lower test material-HFD concentration, where mice were fed HFD for 9 w and then either continued on HFD or switched to test material-HFD (0.8 mg/g) for 7 w.

## O=C(Nc1nc(=O)n(Cc2ccc(Cl)cc2)s1)c1ccc(Cl)cc1 [test material, 4-chloro-N-[2-[(4-chlorophenyl)methyl]-3-oxo-1,2,4-thiadiazol-5-yl]benzamide]
[1]
  pAMPKα: directly increased pAMPKα
CBA mice on HFD [2]
  reduction of hepatic DNL: ~45%
INS-1E cells
  autophagic flux (LC3II): enhanced autophagic flux
CBA mice on HFD [3]
  [18F]-FDG uptake in calf and thigh muscle: significant increase
  [18F]-FDG uptake in heart: significant increase
hIAPPtg mice; 0.8 mg/g for 7 w
  body fat: did not provoke body weight or body fat loss
  body weight: did not provoke body weight or body fat loss
hIAPPtg mice; 0.8 mg/g, 6 w after the switch
  HOMA-IR: significantly reduced
  glucose levels: significantly reduced
  insulin levels: significantly reduced
